# Target: T1, ER-α (Gen Bank Accession #M12674) (Homo sapiens, UniProt P03372)
# T1 construct: made in house; host or cells: in vitro transcription/translation, TNT T7 Quick-Coupled reticulocyte lysate (Promega Cat.#L1170)
# T1 sequence (P03372 1-595): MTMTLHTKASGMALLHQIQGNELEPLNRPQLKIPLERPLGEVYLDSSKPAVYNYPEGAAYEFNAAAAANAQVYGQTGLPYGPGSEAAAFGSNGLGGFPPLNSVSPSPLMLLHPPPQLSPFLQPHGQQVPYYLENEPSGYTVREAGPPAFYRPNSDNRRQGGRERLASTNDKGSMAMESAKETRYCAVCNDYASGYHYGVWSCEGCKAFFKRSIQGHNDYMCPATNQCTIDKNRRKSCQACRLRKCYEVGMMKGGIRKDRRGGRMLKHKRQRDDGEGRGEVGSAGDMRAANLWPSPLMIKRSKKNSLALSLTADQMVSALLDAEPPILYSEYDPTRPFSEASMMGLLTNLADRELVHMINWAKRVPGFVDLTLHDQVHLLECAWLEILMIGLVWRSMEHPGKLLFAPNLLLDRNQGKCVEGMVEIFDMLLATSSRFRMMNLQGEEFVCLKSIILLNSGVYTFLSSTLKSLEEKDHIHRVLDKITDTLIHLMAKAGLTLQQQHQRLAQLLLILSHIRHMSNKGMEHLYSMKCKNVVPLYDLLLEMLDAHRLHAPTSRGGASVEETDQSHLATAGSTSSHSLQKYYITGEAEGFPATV
# Test: Estrogen receptor binding, competition with [125I]-estradiol, ER-α
# Conditions: not given
# Experimental: (§1) The ability of a compound to bind to ER was measured by its ability to compete for binding with the radio-labeled estrogen.
# (§2) Receptor protein was prepared by in vitro transcription and translation of these plasmids using the TNT T7 Quick-Coupled reticulocyte lysate system (Promega Cat.#L1170). […] Programmed lysate was then aliquotted and stored frozen at −80° C.
# (§3) Compounds were prepared as 1 mM stocks in DMSO, then diluted in the binding-assay buffer (in mM: 20 HEPES, 150 NaCl, 1 EDTA, 6 monothioglycerol and 10 Na2MoO4; 10% wt/vol glycerol, and pH =7.9) to a series of three-fold concentrated, 20 μL aliquots in a 96-well plate. Receptor aliquots were thawed on ice, and appropriately diluted (see below) in binding assay buffer. Diluted receptor (30 μL/each) was added to each well. […] Plates containing the final assay mixture were mixed on a shaker for 2 min and incubated overnight (˜16 h) at 4° C.
# (§4) Receptor-bound and unbound radioligand was separated by filtration over sephadex columns. Columns (45 μL bed volume) were prepared by adding dry column media (Pharmacia Cat#G-25) to 96-well column templates (Millipore MultiScreen Plates Cat#MAHVN4510). Columns were then saturated with 300 μL of binding-assay buffer and stored at 4° C. Prior to use, stored columns were spun for 10 minutes at 2000 RPM, then washed twice with 200 μL of fresh binding buffer. The binding-assay mixtures (50 μL/each) were then applied to the columns, and an additional elution volume of 35 μL was immediately applied to the column. Receptor-bound radioligand was then cluted from the column by centrifugation for 10 minutes at 2000 RPM. A scintillation cocktail (145 μL) was added to the eluted radioligand/receptor complex, and radio-label was measured by liquid scintillation counting.
row,Compound,Ki
1,COc1cc(O)c2c(=O)c(-c3ccc(O)cc3)coc2c1 [compound 22],> 3000 nM

# Same assay, conditions: competition with 150 pM [125I]-estradiol; receptor-programmed reticulocyte lysate; overnight at 4° C.; Cheng-Prushoff from IC50; read-out: ER-α Ki
row,Compound,Ki
1,O=c1c(-c2ccc(O)cc2Cl)coc2cc(O)cc(O)c12 [Compound No. 2],56 nM
2,"Cc1c(-c2ccc(O)cc2)c(=O)oc2cc(O)ccc12 [Compound No. 28, 3-(4-hydroxyphenyl)-7-hydroxy-4-methylcoumarin]",322 nM
3,O=c1c(-c2ccc(O)c(O)c2)coc2cc(O)cc(O)c12 [compound 1],605 nM
4,Cc1cc(O)ccc1-c1coc2cc(O)cc(O)c2c1=O [compound 3],61 nM
5,O=c1c(-c2ccc(O)c(F)c2)coc2cc(O)cc(O)c12 [compound 4],74 nM
6,O=c1c(-c2ccc(O)c(Cl)c2)coc2cc(O)cc(O)c12 [compound 5],1100 nM
7,"O=c1c(-c2ccc(O)c(Br)c2)coc2cc(O)cc(O)c12 [compound 6, (3-Bromo-4-hydroxyphenyl)-5,7-dihydroxy-4H-1-benzopyran-4-one]",439 nM
8,C=CCc1cc(-c2coc3cc(O)cc(O)c3c2=O)ccc1O [compound 7],> 3000 nM
9,CCCc1cc(-c2coc3cc(O)cc(O)c3c2=O)ccc1O [compound 8],> 3000 nM
10,COc1cc(-c2coc3cc(O)cc(O)c3c2=O)ccc1O [compound 9],> 3000 nM
11,Cc1cc(-c2coc3cc(O)cc(O)c3c2=O)cc(C)c1O [compound 10],> 3000 nM
12,O=c1c(-c2ccc(F)cc2)coc2cc(O)cc(O)c12 [compound 11],> 3000 nM
13,O=c1c(-c2ccc3c(c2)OCO3)coc2cc(O)cc(O)c12 [compound 12],> 3000 nM
14,Nc1ccc(-c2coc3cc(O)cc(O)c3c2=O)cc1 [compound 13],> 3000 nM
15,O=c1c(-c2ccc3ccccc3c2)coc2cc(O)cc(O)c12 [compound 14],> 3000 nM
16,O=c1c(-c2cccc(O)c2)coc2cc(O)cc(O)c12 [compound 15],900 nM
17,O=c1c(-c2ccccc2O)coc2cc(O)cc(O)c12 [compound 16],> 3000 nM
18,O=c1c(-c2cccs2)coc2cc(O)cc(O)c12 [compound 17],> 3000 nM
19,O=c1c(-c2ccsc2)coc2cc(O)cc(O)c12 [compound 18],> 3000 nM

row,Compound,Ki
1,O=c1c(-c2ccc3ccccc3n2)coc2cc(O)cc(O)c12 [compound 19],> 3000 nM
2,O=c1c(-c2ccc(Br)cc2)coc2cc(O)cc(O)c12 [compound 20],> 3000 nM
3,O=c1c(-c2ccc(Cl)cc2)coc2cc(O)cc(O)c12 [compound 21],> 3000 nM
4,Cc1cc(O)cc2occ(-c3ccc(O)cc3)c(=O)c12 [compound 23],200 nM
5,O=c1c(-c2ccc(O)c(F)c2)coc2cc(O)ccc12 [compound 24],> 3000 nM
6,O=c1c(-c2ccc(O)cc2)c(C(F)(F)F)oc2cc(O)ccc12 [compound 25],321 nM
7,O=C1c2c(O)cc(O)cc2OCC1c1ccc(O)cc1 (stereo not drawn) [compound 26],1000 nM
8,CCc1c(-c2ccc(O)cc2)c(=O)oc2cc(O)ccc12 [compound 29],80 nM
9,COc1c(O)cc(O)c2c(=O)c(-c3ccc(O)cc3)coc12 [compound 32],> 3000 nM
10,O=c1c(-c2ccccc2F)coc2cc(O)cc(O)c12 [compound 33],> 3000 nM
11,O=c1c(-c2ccccc2)c(-c2ccccc2)oc2cc(O)cc(O)c12 [compound 34],95 nM
12,O=c1c(-c2ccccc2)c(-c2ccccc2)oc2cc(O)ccc12 [compound 35],50 nM
13,O=c1cc(-c2ccc(O)cc2)oc2ccc(O)cc12 [compound 36],88 nM
14,O=C1CC(c2ccc(O)cc2)Cc2ccc(O)cc21 (stereo not drawn) [compound 37],75 nM
15,O=c1oc2cc(O)ccc2cc1-c1ccc(O)cc1 [compound 38],220 nM
16,O=c1oc2cc(O)cc(O)c2cc1-c1ccc(O)cc1 [compound 39],> 3000 nM
17,Cc1c(-c2ccc(Cl)cc2)c(=O)oc2cc(O)ccc12 [compound 42],> 3000 nM
18,Cc1c(-c2ccc(O)cc2)c(=O)oc2c(C)c(O)ccc12 [compound 43],500 nM
19,Oc1ccc(C2COc3cc(O)ccc3C2)cc1 (stereo not drawn) [compound 46],155 nM

# Target: ER
# Test: Scatchard analysis of ligand binding affinity on receptor preparation
# Conditions: Scatchard analysis at receptor dilutions giving reported Kis and signal:noise ~10; subtype not specified; read-out: KD for [125I]-estradiol
# Experimental: The volume of receptor-programmed reticulocyte lysate to be added to the binding assay was determined independently from two measurements made on each batch of receptor prepared. First, Kis were determined for standard compounds using a series of dilutions of the receptor preparation. Scatchard analysis of ligand binding affinity was performed at the receptor dilutions that produced reported Kis for these compounds and an acceptable signal:noise ratio (˜10).
row,Compound,Kd
1,"CC12CCC3c4ccc(O)cc4CCC3C1CC([125I])C2O (stereo not drawn) [[^125I]-estradiol, [^125I]-16α-iodo-3,17β-estradiol]",0.1 to 1 nM

# Target: T2, ER-β (Gen Bank Accession #X99101) (Homo sapiens, UniProt Q92731)
# T2 construct: made in house; host or cells: in vitro transcription/translation, TNT T7 Quick-Coupled reticulocyte lysate (Promega Cat.#L1170)
# Test: Estrogen receptor binding, competition with [125I]-estradiol, ER-β
# Conditions: not given
# Experimental: as §1, §2, §3, §4
# T2 sequence (Q92731 54-530 limits assumed): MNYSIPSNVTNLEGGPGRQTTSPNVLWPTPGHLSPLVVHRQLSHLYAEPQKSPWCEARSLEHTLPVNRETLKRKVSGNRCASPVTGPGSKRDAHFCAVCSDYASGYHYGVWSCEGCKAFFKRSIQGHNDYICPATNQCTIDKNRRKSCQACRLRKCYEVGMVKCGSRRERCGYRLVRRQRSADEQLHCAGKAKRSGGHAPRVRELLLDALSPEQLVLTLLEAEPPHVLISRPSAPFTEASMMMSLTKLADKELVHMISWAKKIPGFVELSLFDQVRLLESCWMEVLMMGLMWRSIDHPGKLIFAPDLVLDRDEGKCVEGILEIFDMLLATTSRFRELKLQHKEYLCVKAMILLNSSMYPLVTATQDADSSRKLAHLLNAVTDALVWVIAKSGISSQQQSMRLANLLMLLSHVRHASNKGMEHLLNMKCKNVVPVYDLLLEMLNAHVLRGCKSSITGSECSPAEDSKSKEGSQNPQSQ
row,Compound,Ki
1,COc1cc(O)c2c(=O)c(-c3ccc(O)cc3)coc2c1 [compound 22],50 nM

# Same assay, conditions: competition with 150 pM [125I]-estradiol; receptor-programmed reticulocyte lysate; overnight at 4° C.; Cheng-Prushoff from IC50; read-out: ER-β Ki
row,Compound,Ki
1,O=c1c(-c2ccc(O)cc2Cl)coc2cc(O)cc(O)c12 [Compound No. 2],0.55 nM
2,"Cc1c(-c2ccc(O)cc2)c(=O)oc2cc(O)ccc12 [Compound No. 28, 3-(4-hydroxyphenyl)-7-hydroxy-4-methylcoumarin]",12 nM
3,O=c1c(-c2ccc(O)c(O)c2)coc2cc(O)cc(O)c12 [compound 1],2.15 nM
4,Cc1cc(O)ccc1-c1coc2cc(O)cc(O)c2c1=O [compound 3],1.2 nM
5,O=c1c(-c2ccc(O)c(F)c2)coc2cc(O)cc(O)c12 [compound 4],0.5 nM
6,O=c1c(-c2ccc(O)c(Cl)c2)coc2cc(O)cc(O)c12 [compound 5],1.2 nM
7,"O=c1c(-c2ccc(O)c(Br)c2)coc2cc(O)cc(O)c12 [compound 6, (3-Bromo-4-hydroxyphenyl)-5,7-dihydroxy-4H-1-benzopyran-4-one]",1.25 nM
8,C=CCc1cc(-c2coc3cc(O)cc(O)c3c2=O)ccc1O [compound 7],3.2 nM
9,CCCc1cc(-c2coc3cc(O)cc(O)c3c2=O)ccc1O [compound 8],0.75 nM
10,COc1cc(-c2coc3cc(O)cc(O)c3c2=O)ccc1O [compound 9],143 nM
11,Cc1cc(-c2coc3cc(O)cc(O)c3c2=O)cc(C)c1O [compound 10],25 nM
12,O=c1c(-c2ccc(F)cc2)coc2cc(O)cc(O)c12 [compound 11],100 nM
13,O=c1c(-c2ccc3c(c2)OCO3)coc2cc(O)cc(O)c12 [compound 12],22 nM
14,Nc1ccc(-c2coc3cc(O)cc(O)c3c2=O)cc1 [compound 13],6 nM
15,O=c1c(-c2ccc3ccccc3c2)coc2cc(O)cc(O)c12 [compound 14],150 nM
16,O=c1c(-c2cccc(O)c2)coc2cc(O)cc(O)c12 [compound 15],15 nM
17,O=c1c(-c2ccccc2O)coc2cc(O)cc(O)c12 [compound 16],110 nM
18,O=c1c(-c2cccs2)coc2cc(O)cc(O)c12 [compound 17],3.3 nM
19,O=c1c(-c2ccsc2)coc2cc(O)cc(O)c12 [compound 18],17 nM
20,O=c1c(-c2ccc3ccccc3n2)coc2cc(O)cc(O)c12 [compound 19],122 nM

row,Compound,Ki
1,O=c1c(-c2ccc(Br)cc2)coc2cc(O)cc(O)c12 [compound 20],25 nM
2,O=c1c(-c2ccc(Cl)cc2)coc2cc(O)cc(O)c12 [compound 21],42 nM
3,Cc1cc(O)cc2occ(-c3ccc(O)cc3)c(=O)c12 [compound 23],0.5 nM
4,O=c1c(-c2ccc(O)c(F)c2)coc2cc(O)ccc12 [compound 24],3.3 nM
5,O=c1c(-c2ccc(O)cc2)c(C(F)(F)F)oc2cc(O)ccc12 [compound 25],10 nM
6,O=C1c2c(O)cc(O)cc2OCC1c1ccc(O)cc1 (stereo not drawn) [compound 26],3.7 nM
7,O=C1c2c(O)cc(O)cc2CCC1c1ccc(O)cc1 (stereo not drawn) [compound 27],5.7 nM
8,CCc1c(-c2ccc(O)cc2)c(=O)oc2cc(O)ccc12 [compound 29],4 nM
9,COc1c(O)cc(O)c2c(=O)c(-c3ccc(O)cc3)coc12 [compound 32],33 nM
10,O=c1c(-c2ccccc2F)coc2cc(O)cc(O)c12 [compound 33],50 nM
11,O=c1c(-c2ccccc2)c(-c2ccccc2)oc2cc(O)cc(O)c12 [compound 34],9.5 nM
12,O=c1c(-c2ccccc2)c(-c2ccccc2)oc2cc(O)ccc12 [compound 35],19 nM
13,O=c1cc(-c2ccc(O)cc2)oc2ccc(O)cc12 [compound 36],0.33 nM
14,O=C1CC(c2ccc(O)cc2)Cc2ccc(O)cc21 (stereo not drawn) [compound 37],0.73 nM
15,O=c1oc2cc(O)ccc2cc1-c1ccc(O)cc1 [compound 38],4.9 nM
16,O=c1oc2cc(O)cc(O)c2cc1-c1ccc(O)cc1 [compound 39],79 nM
17,O=c1oc2ccc(O)cc2cc1-c1ccc(O)cc1 [compound 41],4.6 nM
18,Cc1c(-c2ccc(Cl)cc2)c(=O)oc2cc(O)ccc12 [compound 42],51 nM
19,Cc1c(-c2ccc(O)cc2)c(=O)oc2c(C)c(O)ccc12 [compound 43],24 nM
20,Oc1ccc(C2COc3cc(O)ccc3C2)cc1 (stereo not drawn) [compound 46],2 nM
